According to US9822124B2, “Bicyclic heteroaromatic carboxamide compounds useful as Pim kinase inhibitors” (Incyte Corporation, priority 2014, dated 2017):

What was measured:
Assay type in all cases: biochemical
[1] = biological target: Pim-2 (Homo sapiens (Human), UniProt Q9P1W9); experiment: Pim-2 kinase assay (TR-FRET, Fluorescein-labeled CREBtide peptide substrate); conditions: 1 mM ATP; read-out: Pim2 IC50
Protocol: Pim-2 kinase assay—20 μL reactions were run in white 384 well polystyrene plates dotted with 0.8 μL compound/DMSO in the assay buffer (50 mM Tris, pH 7.5, 0.01% Tween-20, 5 mM MgCl2, 0.01% BSA, 5 mM DTT), containing 0.05 μM Fluorescein-labeled CREBtide peptide substrate (Invitrogen PV3508), 1 mM ATP, and 1 nM enzyme (Invitrogen PV3649) for 2 h at 25° C. Reactions were stopped by addition of 10 μL TR-FRET Dilution Buffer (Invitrogen PV3574) with 30 mM EDTA and 1.5 nM LanthaScreen Tb-CREB pSer133 antibody (Invitrogen PV3566). After 30 min. incubation at room temperature, plates were read on a PHERAstar FS plate reader (BMG Labtech).

[2] = biological target: Pim-1 (Homo sapiens (Human), UniProt P11309); experiment: Pim-1 kinase assay (AlphaScreen, Biotin-labeled BAD peptide substrate); conditions: 1 mM ATP; read-out: Pim1 IC50
Chain of Pim-1 (P11309 whole entry): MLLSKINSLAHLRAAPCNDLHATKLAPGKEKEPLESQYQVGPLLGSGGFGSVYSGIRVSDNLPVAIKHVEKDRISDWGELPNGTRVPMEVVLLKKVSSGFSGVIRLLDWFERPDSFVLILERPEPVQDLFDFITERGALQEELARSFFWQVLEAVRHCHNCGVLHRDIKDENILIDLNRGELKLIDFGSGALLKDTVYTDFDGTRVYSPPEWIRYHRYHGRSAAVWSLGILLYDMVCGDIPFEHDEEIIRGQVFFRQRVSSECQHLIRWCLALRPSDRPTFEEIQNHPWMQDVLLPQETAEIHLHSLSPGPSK
Protocol: (§1) Pim-1 and Pim-3 kinase assays—20 μL reactions were run in white 384 well polystyrene plates dotted with 0.8 μL compound/DMSO in the assay buffer (50 mM Tris, pH 7.5, 0.01% Tween-20, 5 mM MgCl2, 0.01% BSA, 5 mM DTT), containing 0.05 μM Biotin-labeled BAD peptide substrate (AnaSpec 62269), 1 mM ATP, and […] (Pim-1, Invitrogen PV3503) or […] (Pim-3, Millipore 14-738) enzyme for 1 h at 25° C. Reactions were stopped by addition of 10 μL STOP Buffer (150 mM Tris, pH=7.5, 150 mM NaCl, 75 mM EDTA, 0.01% Tween-20, 0.3% BSA) supplemented with Phospho-Bad (Ser112) Antibody (Cell Signaling 9291) diluted 666-fold, and Streptavidin donor beads (PerkinElmer 6760002) along with Protein-A acceptor beads (PerkinElmer 6760137) at 15 μg/mL each. Supplementation of the STOP buffer with beads and stopping the reactions were done under reduced light. Prior to the stopping reactions STOP buffer with beads was preincubated for 1 h in the dark at room temperature. After stopping the reactions, plates were incubated for 1 h in the dark at room temperature before reading on a PHERAstar FS plate reader (BMG Labtech) under reduced light.

[3] = biological target: Pim-3 (Homo sapiens (Human), UniProt Q86V86); experiment: Pim-3 kinase assay (AlphaScreen, Biotin-labeled BAD peptide substrate); conditions: 1 mM ATP; read-out: Pim3 IC50
Protocol: as §1

Chain of Pim-2 (Q9P1W9 whole entry): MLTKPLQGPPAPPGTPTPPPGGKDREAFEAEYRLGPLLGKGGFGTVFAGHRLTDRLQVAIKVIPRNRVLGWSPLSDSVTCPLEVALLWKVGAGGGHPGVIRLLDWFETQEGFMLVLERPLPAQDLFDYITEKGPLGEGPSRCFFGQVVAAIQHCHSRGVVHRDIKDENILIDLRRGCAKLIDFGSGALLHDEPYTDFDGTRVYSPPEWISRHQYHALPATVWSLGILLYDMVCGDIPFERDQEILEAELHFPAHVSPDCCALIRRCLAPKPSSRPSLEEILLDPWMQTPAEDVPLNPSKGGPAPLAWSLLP

Row | Structure (SMILES) | IC50 [1] | IC50 [2] | IC50 [3]
1 | CC(C)c1cc2nc(C(=O)Nc3cnccc3N3C[C@@H](N)[C@H](O)[C@@H](C)C3)ccc2s1 [Example 39, N-(4-((3R,4R,5S)-3-Amino-4-hydroxy-5-methylpiperidin-1-yl)pyridin-3-yl)-2-isopropylthieno[3,2-b]pyridine-5-carboxamide] | ≤ 100 nM | ≤ 10 nM | ≤ 10 nM
2 | C[C@H]1CN(c2ccncc2NC(=O)c2ccc3sc(-c4c(F)cccc4F)cc3n2)C[C@@H](N)[C@@H]1O [Example 40, N-(4-((3R,4R,5S)-3-Amino-4-hydroxy-5-methylpiperidin-1-yl)pyridin-3-yl)-2-(2,6-difluorophenyl)thieno[3,2-b]pyridine-5-carboxamide] | 100 to 1000 nM | ≤ 10 nM | ≤ 10 nM
3 | C[C@H]1CN(c2ccncc2NC(=O)c2ccc3sc(-c4ccccc4F)cc3n2)C[C@@H](N)[C@@H]1O [Example 41, N-(4-((3R,4R,5S)-3-Amino-4-hydroxy-5-methylpiperidin-1-yl)pyridin-3-yl)-2-(2-fluorophenyl)thieno[3,2-b]pyridine-5-carboxamide] | 100 to 1000 nM | ≤ 10 nM | ≤ 10 nM
4 | C[C@H]1CN(c2ccncc2NC(=O)c2ccc3sc(Cc4ccccc4)cc3n2)C[C@@H](N)[C@@H]1O [Example 42, N-(4-((3R,4R,5S)-3-Amino-4-hydroxy-5-methylpiperidin-1-yl)pyridin-3-yl)-2-benzylthieno[3,2-b]pyridine-5-carboxamide] | 100 to 1000 nM | ≤ 10 nM | ≤ 10 nM
5 | COc1ccc(-c2cc3nc(C(=O)Nc4cnccc4N4C[C@@H](N)[C@H](O)[C@@H](C)C4)ccc3s2)cn1 [Example 43, N-(4-((3R,4R,5S)-3-Amino-4-hydroxy-5-methylpiperidin-1-yl)pyridin-3-yl)-2-(6-methoxypyridin-3-yl)thieno[3,2-b]pyridine-5-carboxamide] | 100 to 1000 nM | ≤ 10 nM | ≤ 10 nM
6 | C[C@H]1CN(c2ccncc2NC(=O)c2ccc3sc(-c4ccc(N5CCOCC5)nc4)cc3n2)C[C@@H](N)[C@@H]1O [Example 44, N-(4-((3R,4R,5S)-3-Amino-4-hydroxy-5-methylpiperidin-1-yl)pyridin-3-yl)-2-(6-morpholinopyridin-3-yl)thieno[3,2-b]pyridine-5-carb oxamide] | 100 to 1000 nM | ≤ 10 nM | ≤ 10 nM
7 | COc1cc(F)c(-c2cc3nc(C(=O)Nc4cnccc4N4C[C@@H](N)[C@H](O)[C@@H](C)C4)ccc3s2)c(F)c1 [Example 45, N-(4-((3R,4R,5S)-3-Amino-4-hydroxy-5-methylpiperidin-1-yl)pyridin-3-yl)-2-(2,6-difluoro-4-methoxyphenyl)thieno[3,2-b]pyridine-5-carboxamide] | 100 to 1000 nM | ≤ 10 nM | ≤ 10 nM
8 | C[C@H]1CN(c2ccncc2NC(=O)c2ccc3sc(-c4ccccc4)cc3n2)C[C@@H](N)[C@@H]1O [Example 46, N-(4-((3R,4R,5S)-3-Amino-4-hydroxy-5-methylpiperidin-1-yl)pyridin-3-yl)-2-phenylthieno[3,2-b]pyridine-5-carboxamide] | 100 to 1000 nM | ≤ 10 nM | ≤ 10 nM
9 | C[C@H]1CN(c2ccncc2NC(=O)c2ccc3sc(C4CC4)cc3n2)C[C@@H](N)[C@@H]1O [Example 47, N-(4-((3R,4R,5S)-3-Amino-4-hydroxy-5-methylpiperidin-1-yl)pyridin-3-yl)-2-cyclopropylthieno[3,2-b]pyridine-5-carboxamide] | ≤ 100 nM | ≤ 10 nM | ≤ 10 nM
10 | C[C@H]1CN(c2ccncc2NC(=O)c2ccc3sc(-c4cnn(C)c4)cc3n2)C[C@@H](N)[C@@H]1O [Example 48, N-(4-((3R,4R,5S)-3-Amino-4-hydroxy-5-methylpiperidin-1-yl)pyridin-3-yl)-2-(1-methyl-1H-pyrazol-4-yl)thieno[3,2-b]pyridine-5-carboxamide] | ≤ 100 nM | ≤ 10 nM | ≤ 10 nM
11 | Cc1cc2nc(C(=O)Nc3cnccc3N3C[C@@H](N)[C@H](O)[C@@H](C)C3)ccc2s1 [Example 49, N-(4-((3R,4R,5S)-3-Amino-4-hydroxy-5-methylpiperidin-1-yl)pyridin-3-yl)-2-methylthieno[3,2-b]pyridine-5-carboxamide] | 100 to 1000 nM | ≤ 10 nM | ≤ 10 nM
12 | CCCc1cc2nc(C(=O)Nc3cnccc3N3C[C@H](C)C[C@H](N)C3)ccc2s1 [Example 50, N-(4-((3S,5R)-3-Amino-5-methylpiperidin-1-yl)pyridin-3-yl)-2-propylthieno[3,2-b]pyridine-5-carboxamide] | ≤ 100 nM | ≤ 10 nM | ≤ 10 nM
13 | CC(C)c1cc2nc(C(=O)Nc3cnccc3N3C[C@H](C)C[C@H](N)C3)ccc2s1 [Example 51, N-(4-((3S,5R)-3-Amino-5-methylpiperidin-1-yl)pyridin-3-yl)-2-isopropylthieno[3,2-b]pyridine-5-carboxamide] | ≤ 100 nM | ≤ 10 nM | ≤ 10 nM
14 | C[C@@H]1C[C@H](N)CN(c2ccncc2NC(=O)c2ccc3sc(-c4c(F)cccc4F)cc3n2)C1 [Example 52, N-(4-((3S,5R)-3-Amino-5-methylpiperidin-1-yl)pyridin-3-yl)-2-(2,6-difluorophenyl)thieno[3,2-b]pyridine-5-carboxamide] | 100 to 1000 nM | ≤ 10 nM | ≤ 10 nM
15 | C[C@@H]1C[C@H](N)CN(c2ccncc2NC(=O)c2ccc3sc(-c4ccccc4F)cc3n2)C1 [Example 53, N-(4-((3S,5R)-3-Amino-5-methylpiperidin-1-yl)pyridin-3-yl)-2-(2-fluorophenyl)thieno[3,2-b]pyridine-5-carboxamide] | 100 to 1000 nM | ≤ 10 nM | ≤ 10 nM
16 | C[C@@H]1C[C@H](N)CN(c2ccncc2NC(=O)c2ccc3sc(Cc4ccccc4)cc3n2)C1 [Example 54, N-(4-((3S,5R)-3-Amino-5-methylpiperidin-1-yl)pyridin-3-yl)-2-benzylthieno[3,2-b]pyridine-5-carboxamide] | 100 to 1000 nM | ≤ 10 nM | ≤ 10 nM
17 | COc1ccc(-c2cc3nc(C(=O)Nc4cnccc4N4C[C@H](C)C[C@H](N)C4)ccc3s2)cn1 [Example 55, N-(4-((3S,5R)-3-Amino-5-methylpiperidin-1-yl)pyridin-3-yl)-2-(6-methoxypyridin-3-yl)thieno[3,2-b]pyridine-5-carboxamide] | 100 to 1000 nM | ≤ 10 nM | ≤ 10 nM
18 | C[C@@H]1C[C@H](N)CN(c2ccncc2NC(=O)c2ccc3sc(-c4ccc(N5CCOCC5)nc4)cc3n2)C1 [Example 56, N-(4-((3S,5R)-3-Amino-5-methylpiperidin-1-yl)pyridin-3-yl)-2-(6-morpholinopyridin-3-yl)thieno[3,2-b]pyridine-5-carboxamide] | 100 to 1000 nM | ≤ 10 nM | ≤ 10 nM
19 | COc1cc(F)c(-c2cc3nc(C(=O)Nc4cnccc4N4C[C@H](C)C[C@H](N)C4)ccc3s2)c(F)c1 [Example 57, N-(4-((3S,5R)-3-Amino-5-methylpiperidin-1-yl)pyridin-3-yl)-2-(2,6-difluoro-4-methoxyphenyl)thieno[3,2-b]pyridine-5-carboxamide] | 100 to 1000 nM | ≤ 10 nM | ≤ 10 nM
20 | C[C@@H]1C[C@H](N)CN(c2ccncc2NC(=O)c2ccc3sc(-c4ccccc4)cc3n2)C1 [Example 58, N-(4-((3S,5R)-3-Amino-5-methylpiperidin-1-yl)pyridin-3-yl)-2-phenylthieno[3,2-b]pyridine-5-carboxamide] | 100 to 1000 nM | ≤ 10 nM | ≤ 10 nM
21 | C[C@@H]1C[C@H](N)CN(c2ccncc2NC(=O)c2ccc3sc(C4CC4)cc3n2)C1 [Example 59, N-(4-((3S,5R)-3-Amino-5-methylpiperidin-1-yl)pyridin-3-yl)-2-cyclopropylthieno[3,2-b]pyridine-5-carboxamide] | ≤ 100 nM | ≤ 10 nM | ≤ 10 nM
22 | C[C@@H]1C[C@H](N)CN(c2ccncc2NC(=O)c2ccc3sc(-c4cnn(C)c4)cc3n2)C1 [Example 60, N-(4-((3S,5R)-3-Amino-5-methylpiperidin-1-yl)pyridin-3-yl)-2-(1-methyl-1H-pyrazol-4-yl)thieno[3,2-b]pyridine-5-carboxamide] | ≤ 100 nM | ≤ 10 nM | ≤ 10 nM
23 | Cc1cc2nc(C(=O)Nc3cnccc3N3C[C@H](C)C[C@H](N)C3)ccc2s1 [Example 61, N-(4-((3S,5R)-3-Amino-5-methylpiperidin-1-yl)pyridin-3-yl)-2-methylthieno[3,2-b]pyridine-5-carboxamide] | 100 to 1000 nM | ≤ 10 nM | ≤ 10 nM
